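Step 1: Grow cells in 96-well plates. Step 2: Expose to compound for 48 hours at 5 concentrations. Step 3: Interpolate endpoints linearly; if unreached, use highest concentration. GI50 = concentration required for 50% inhibition of growth.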 Activity calls are given as the source filed them. Rule as the data show it: active = GI50 up to about 1.1 µM and inactive = higher.
Columns and labels:
Test in all cases: inhibition of tumour cell growth, NCI panel, 48 h
[1] = test system: A498
[2] = test system: CCRF-CEM
[3] = test system: HCT-15
[4] = test system: HOP-62
[5] = test system: IGROV-1
[6] = test system: MDA-MB-435
[7] = test system: NCI-H23
[8] = test system: NCI-H522
[9] = test system: OVCAR-5
[10] = test system: OVCAR-8
[11] = test system: SK-MEL-5
[12] = test system: SN12C
[13] = test system: SNB-19
[14] = test system: SW-620
[15] = test system: U-251
[16] = test system: UACC-257
[17] = test system: HCC 2998
[18] = test system: NCI-H460
[19] = test system: SNB-75
[20] = test system: SR

Row | SMILES | GI50 [1] | GI50 [2] | GI50 [3] | GI50 [4] | GI50 [5] | GI50 [6] | GI50 [7] | GI50 [8] | GI50 [9] | GI50 [10] | GI50 [11] | GI50 [12] | GI50 [13] | GI50 [14] | GI50 [15] | GI50 [16] | GI50 [17] | GI50 [18] | GI50 [19] | GI50 [20]
1 | O=C1OS2(OC(=O)c3cccc4cccc2c34)c2ccccc21 (stereo unspecified) | > 100 µM (inactive) | > 100 µM (inactive) | > 100 µM | > 100 µM (inactive) | > 100 µM (inactive) | > 100 µM (inactive) | > 100 µM (inactive) | > 100 µM (inactive) | > 100 µM (inactive) | > 100 µM (inactive) | > 100 µM (inactive) | > 100 µM (inactive) | > 100 µM (inactive) | > 100 µM (inactive) | > 100 µM (inactive) | > 100 µM (inactive) | – | – | – | –
2 | [N-]=[N+]=NCN1C(=O)C2C3C=CC(C2C1=O)C1C2C(=O)N(CN=[N+]=[N-])C(=O)C2C31 (stereo unspecified) | – | – | > 100 µM | > 100 µM (inactive) | > 100 µM (inactive) | > 100 µM (inactive) | > 100 µM (inactive) | > 100 µM (inactive) | – | > 100 µM (inactive) | > 100 µM (inactive) | > 100 µM (inactive) | > 100 µM (inactive) | > 100 µM (inactive) | – | > 100 µM (inactive) | 11.7 µM (inactive) | > 100 µM (inactive) | – | –
3 | O=C1C(NS(=O)(=O)c2ccccc2)=C(N(Cc2ccccc2)Cc2ccccc2)C(=O)c2ccccc21 | – | 20.2 µM (inactive) | 37.7 µM | 41 µM (inactive) | 41.8 µM (inactive) | 47.3 µM (inactive) | 15.8 µM (inactive) | – | > 100 µM (inactive) | 70.3 µM (inactive) | 80.4 µM (inactive) | 41.5 µM (inactive) | 38.6 µM (inactive) | 38.9 µM (inactive) | 35 µM (inactive) | 96.8 µM (inactive) | – | 36.6 µM (inactive) | 70.8 µM (inactive) | 22.7 µM (inactive)
4 | Cc1cccc(C)c1NC(=S)NC=C(C(N)=O)C(N)=O | > 100 µM (inactive) | > 100 µM (inactive) | > 100 µM | > 100 µM (inactive) | > 100 µM (inactive) | > 100 µM (inactive) | > 100 µM (inactive) | > 100 µM (inactive) | > 100 µM (inactive) | > 100 µM (inactive) | > 100 µM (inactive) | > 100 µM (inactive) | > 100 µM (inactive) | > 100 µM (inactive) | > 100 µM (inactive) | > 100 µM (inactive) | > 100 µM (inactive) | > 100 µM (inactive) | > 100 µM (inactive) | –
5 | CC1(C)[C@@H]2C[C@H]1[C@@H](Cc1cccc(C[C@H]3c4cc(-c5ccccn5)ncc4[C@H]4C[C@@H]3C4(C)C)c1)c1cc(-c3ccccn3)ncc12 | > 44.4 µM (inactive) | 1.11 µM (active) | 8.24 µM | 17.5 µM (inactive) | 3.49 µM (inactive) | 2.96 µM (inactive) | 4.9 µM (inactive) | 8.93 µM (inactive) | > 72.4 µM (inactive) | 1.79 µM (inactive) | 3.36 µM (inactive) | 5.68 µM (inactive) | 3.46 µM (inactive) | 8.45 µM (inactive) | 2.92 µM (inactive) | 4.62 µM (inactive) | 12.4 µM (inactive) | 0.889 µM (active) | > 22.8 µM (inactive) | –
6 | CO[C@@H]1[C@H](O)CC[C@]2(CO2)[C@H]1[C@@]1(C)O[C@@H]1CC=C(C)C | > 200 µM (inactive) | > 200 µM (inactive) | 46.1 µM | 58.2 µM (inactive) | 104 µM (inactive) | 95.5 µM (inactive) | > 200 µM (inactive) | > 200 µM (inactive) | > 200 µM (inactive) | – | > 200 µM (inactive) | 25 µM (inactive) | 79.1 µM (inactive) | 107 µM (inactive) | 2.29 µM (inactive) | – | – | 0.617 µM (active) | > 200 µM (inactive) | –
7 | NC(=O)C#CC#CC#CCO | 4.4 µM (inactive) | 0.843 µM (active) | 1.8 µM | 10.9 µM (inactive) | 2.72 µM (inactive) | – | 2.12 µM (inactive) | 0.15 µM (active) | 18.9 µM (inactive) | 1.81 µM (inactive) | 1.98 µM (inactive) | 1.96 µM (inactive) | 14.9 µM (inactive) | 1.51 µM (inactive) | 2 µM (inactive) | 2.33 µM (inactive) | 1.7 µM (inactive) | 5.96 µM (inactive) | 1.82 µM (inactive) | 2.47 µM (inactive)
8 | CC1S/C(=N/c2nnc(-c3ccccc3)o2)NC1=O (stereo unspecified) | > 100 µM (inactive) | 14.5 µM (inactive) | 30.4 µM | 26.7 µM (inactive) | 43.9 µM (inactive) | 39.1 µM (inactive) | 94.8 µM (inactive) | 28 µM (inactive) | > 100 µM (inactive) | 43.6 µM (inactive) | 35.9 µM (inactive) | 36.1 µM (inactive) | 55.6 µM (inactive) | 46 µM (inactive) | 26.6 µM (inactive) | 53.8 µM (inactive) | – | – | – | –

From ChEMBL document CHEMBL1201862, “PubChem BioAssay data set” (2004)
